Results taken from PMC7586797, “Phase 1 Study to Evaluate the Effect of the Investigational Anticancer Agent Sapanisertib on the QTc Interval in Patients With Advanced Solid Tumors” (Clinical Pharmacology in Drug Development, 2020).
Where two headings read alike, the source gives them in different places.

What was measured:
[1] = test system: organic cation transporter 2; set-up: method as in Takeda data on file; conditions: in vitro; ref Takeda data on file; cited from earlier work
[2] = test system: CYP and UGT enzymes; set-up: method as in Takeda, data on file; conditions: in vitro reaction phenotyping; ref Takeda, data on file; cited from earlier work
[3] = set-up: method as in Takeda, data on file; conditions: human hepatocytes; ref Takeda, data on file; cited from earlier work
[4] = test system: CYP enzymes; conditions: in vitro, clinically relevant concentrations; cited from earlier work
[5] = cited from earlier work; for Geometric Mean Cmax: fasted, immediate release capsules, advanced solid tumors, ref data on file 14
[6] = test system: patients with advanced solid tumors; conditions: in vivo
Text: The relationships between concentration of sapanisertib and QTc and RR intervals were quantitatively analyzed in the PK/QTc analysis population using PK and ECG data from all patients. The data were first explored by graphical analysis, including a visual check for evidence of hysteresis. Mixed‐effects models were subsequently developed to describe the direct effect of sapanisertib on change from time‐matched baseline in RR, QTcI, and QTcF.
Standard diagnostic and goodness‐of‐fit plots were used for model evaluation and adequacy, plausibility, and precision of parameter estimates. A visual predictive check for the final model was generated to evaluate whether the model provided an accurate description of the data. The estimated parameters were reported with the standard error of the estimates as a measure of uncertainty, and nonparametric bootstrap resampling was used to construct 95%CI for the population parameters in each model. All model development was conducted with a qualified installation of the nonlinear mixed‐effects modeling software, version 7.3 (ICON Development Solutions, Hanover, Maryland). All data analyses were conducted using a qualified installation of the statistical software R.
A linear mixed‐effects model was used to characterize the direct effect of sapanisertib plasma concentration on ΔQTcI. […] The linear mixed‐effects model of sapanisertib plasma concentration versus ΔQTcI was subsequently used to predict the effect of sapanisertib on QTcI at the expected Cmax values for 4‐, 30‐, and 40‐mg sapanisertib doses. […] Model‐based simulations from the fitted model for ΔQTcI versus sapanisertib plasma concentration were used to generate CIs across the range of observed concentrations and to estimate the probability of patient ΔQTcI values exceeding 30‐ and 60‐millisecond thresholds at Cmax values corresponding to the 4‐, 30‐, and 40‐mg doses (Table 4).

[7] = test system: patients with advanced solid tumors; assay: Safety: adverse events (NCI CTCAE v4.03); format: in vivo, human
Protocol: On cycle 1 day 1, triplicate ECGs and plasma samples for PK were collected from patients ≤15 minutes prior to dosing and at 15 minutes; 30 minutes; and 1‐, 1.5‐, 2‐, 2.5‐, 3‐, 4‐, 6‐, 8‐, and 10‐hour time points after receiving a single oral dose of 40‐mg sapanisertib. The Holter recorders and ECG leads were removed from patients after collection of the 10‐hour time point ECG on day 1, following which patients were furloughed from site. Additional collections of ECGs and plasma samples for PK were conducted at 24 (cycle 1 day 2) and 48 hours (cycle 1 day 3) after dosing. After the first week, that is, cycle 1 day 8, patients had the option to continue to receive treatment with sapanisertib at a dose of 30 mg once weekly in continuous 28‐day cycles until disease progression, unacceptable toxicity, withdrawal of consent, or completion of the 12‐month maximum study duration.
PK parameters were calculated by noncompartmental methods using WinNonLin Professional version 6.1 (Certara, Princeton, New Jersey). The PK analysis population was defined as all patients who received at least 1 dose of sapanisertib and had sufficient concentration‐time data to calculate ≥1 PK parameters. The safety population included all patients who received ≥1 dose of sapanisertib, according to the National Cancer Institute Common Terminology Criteria for Adverse Events, version 4.03.

[8] = test system: monkey; set-up: method as in data on file; conditions: ref data on file, cited from earlier work
[9] = test system: breast cancer‐ resistance protein; set-up: method as in Takeda data on file; conditions: in vitro; ref Takeda data on file; cited from earlier work
[10] = set-up: method as in data on file; conditions: in vitro; ref data on file; cited from earlier work
[11] = test system: human ether‐à‐go‐go channel; assay: In vitro hERG channel inhibition; format: biochemical; conditions: free Cmax 0.3 µM at 40 mg

## CC(C)n1nc(-c2ccc3oc(N)nc3c2)c2c(N)ncnc21 [sapanisertib]
[1]
  IC50: 1.9 µM
[2]
  CYP enzymes participating in oxidative metabolism: CYP1A2, 3A4, and 2C19
[3]
  Share of hepatic metabolism mediated by cytochrome P450 (CYP) isozymes: ~60%
  Share of hepatic metabolism mediated by other non-CYP enzymes: ~20%
  Share of hepatic metabolism mediated by uridine 5'-diphospho-glucuronosyltransferases: ~20%
[4]
  Inhibition or induction of CYP enzymes: did not inhibit or induce CYP enzymes
[5]; 4 mg once daily
  Geometric Mean Cmax: 36.9 ng/mL ^a
[5]; 30 mg once weekly
  Geometric Mean Cmax: 235 ng/mL ^b
[5]; 40 mg, cancer patients
  Anticipated free maximum plasma concentration (Cmax): 300 nM
[5]; 40 mg, cancer patients, read-out: Total Cmax
  Cmax: 960 nM
[5]; 2- to 40-mg dose range
  Dose linearity of pharmacokinetics: dose‐linear pharmacokinetics
[5]; once-daily administration
  Accumulation ratio: ~1
[5]; once-weekly administration
  Accumulation: does not accumulate
[6]; human
  Estimated probability that ΔQTcF would exceed 30 milliseconds or 60 milliseconds: < 0.0001
[6]
  Association of ΔQTcF with plasma concentration: weakly negative association
  Association of ΔQTcI with plasma concentration: weakly negative association
  Association of ΔRR with plasma concentration: weakly positive association
[7]; N = 44, neither death considered related to study drug
  Patients who died during the study: Two
[7]; human, in vivo
  AE of special interest: asthenic conditions: 61%
  AE of special interest: hyperglycemia: 18%
  AE of special interest: mucosal inflammation: 25%
  AE of special interest: rash: 20%
  AE of special interest: renal insufficiency: 5%
  Dehydration, grade ≥3: 5%
  Diarrhea, grade ≥3: 5%
  Fatigue, any grade: 61%
  Fatigue, grade ≥3: 16%
  Hyperglycemia, grade ≥3: 5%
  Nausea, any grade: 80%
  Patients who experienced adverse events: 98%
  Patients with grade ≥3 AEs: 59%
  Stomatitis, grade ≥3: 5%
  Vomiting, any grade: 57%
[7]; in vivo
  Patients who discontinued study due to AEs: Four
[8]; 0.5 mg/kg
  Estimated free Cmax: 230 nM
[8]; single- or multiple-dose, up to 0.5 mg/kg
  Electrocardiographic changes: no remarkable electrocardiographic changes
[9]
  IC50: 51.9 µM
[10]
  Bound to human plasma proteins: 70.5%
[11]
  hERG IC50 as multiple of anticipated free Cmax: ~583 times
